Assay: xn = mol fraction of the nth substance listed
Settings: Liquid, Vibrating tube method

CCCCCCCCCC [decane] + CCCCCC
Settings	mass density [kg/m3]
343.06 K, 22000 kPa, x2 = 0.7524	665.93
343.06 K, 23000 kPa, x2 = 0.2185	702.17
343.06 K, 23000 kPa, x2 = 0.7524	666.87
343.06 K, 24000 kPa, x2 = 0.2185	702.97
343.06 K, 24000 kPa, x2 = 0.7524	667.79
343.06 K, 25000 kPa, x2 = 0.2185	703.79
343.06 K, 25000 kPa, x2 = 0.7524	668.69
343.08 K, 1000 kPa, x2 = 0.4968	663.07
343.08 K, 2000 kPa, x2 = 0.4968	664.35
343.08 K, 3000 kPa, x2 = 0.4968	665.55
343.08 K, 4000 kPa, x2 = 0.4968	666.8
343.08 K, 5000 kPa, x2 = 0.4968	667.97
343.08 K, 6000 kPa, x2 = 0.4968	669.14
343.08 K, 7000 kPa, x2 = 0.4968	670.28
343.08 K, 8000 kPa, x2 = 0.4968	671.4
343.08 K, 9000 kPa, x2 = 0.4968	672.48
343.08 K, 10000 kPa, x2 = 0.4968	673.55
343.08 K, 11000 kPa, x2 = 0.4968	674.64
343.08 K, 12000 kPa, x2 = 0.4968	675.64
343.08 K, 13000 kPa, x2 = 0.4968	676.63
343.08 K, 14000 kPa, x2 = 0.4968	677.63
343.08 K, 15000 kPa, x2 = 0.4968	678.63
343.08 K, 16000 kPa, x2 = 0.4968	679.61
343.08 K, 17000 kPa, x2 = 0.4968	680.59
343.08 K, 18000 kPa, x2 = 0.4968	681.52
343.08 K, 19000 kPa, x2 = 0.4968	682.46
343.08 K, 20000 kPa, x2 = 0.4968	683.4
343.08 K, 21000 kPa, x2 = 0.4968	684.32
343.08 K, 22000 kPa, x2 = 0.4968	685.22
343.08 K, 23000 kPa, x2 = 0.4968	686.1
343.08 K, 24000 kPa, x2 = 0.4968	686.98
343.08 K, 25000 kPa, x2 = 0.4968	687.83
352.75 K, 1000 kPa, x2 = 0.8991	617.37
352.75 K, 2000 kPa, x2 = 0.8991	618.91
352.75 K, 3000 kPa, x2 = 0.8991	620.43
352.75 K, 4000 kPa, x2 = 0.8991	621.91
352.75 K, 5000 kPa, x2 = 0.8991	623.4
352.75 K, 6000 kPa, x2 = 0.8991	624.85
352.75 K, 7000 kPa, x2 = 0.8991	626.29
352.75 K, 8000 kPa, x2 = 0.8991	627.7
352.75 K, 9000 kPa, x2 = 0.8991	629.09
352.75 K, 10000 kPa, x2 = 0.8991	630.46
352.75 K, 11000 kPa, x2 = 0.8991	631.8
352.75 K, 12000 kPa, x2 = 0.8991	633.12
352.75 K, 13000 kPa, x2 = 0.8991	634.41
352.75 K, 14000 kPa, x2 = 0.8991	635.69
352.75 K, 15000 kPa, x2 = 0.8991	636.93
352.75 K, 16000 kPa, x2 = 0.8991	638.16
352.75 K, 17000 kPa, x2 = 0.8991	639.35
352.75 K, 18000 kPa, x2 = 0.8991	640.52
352.75 K, 19000 kPa, x2 = 0.8991	641.66
352.75 K, 20000 kPa, x2 = 0.8991	642.78
352.75 K, 21000 kPa, x2 = 0.8991	643.87
352.75 K, 22000 kPa, x2 = 0.8991	644.93
352.75 K, 23000 kPa, x2 = 0.8991	645.98
352.75 K, 24000 kPa, x2 = 0.8991	646.99
352.75 K, 25000 kPa, x2 = 0.8991	647.98
352.99 K, 1000 kPa, x2 = 0.0456	682.21
352.99 K, 1000 kPa, x2 = 0.7524	632.44
352.99 K, 2000 kPa, x2 = 0.0456	683.34
352.99 K, 2000 kPa, x2 = 0.7524	633.97
352.99 K, 3000 kPa, x2 = 0.0456	684.46
352.99 K, 3000 kPa, x2 = 0.7524	635.47
352.99 K, 4000 kPa, x2 = 0.0456	685.57
352.99 K, 4000 kPa, x2 = 0.7524	636.89
352.99 K, 5000 kPa, x2 = 0.0456	686.64
352.99 K, 5000 kPa, x2 = 0.7524	638.37
352.99 K, 6000 kPa, x2 = 0.0456	687.71
352.99 K, 6000 kPa, x2 = 0.7524	639.77
352.99 K, 7000 kPa, x2 = 0.0456	688.77
352.99 K, 7000 kPa, x2 = 0.7524	641.14
352.99 K, 8000 kPa, x2 = 0.0456	689.81
352.99 K, 8000 kPa, x2 = 0.7524	642.48
352.99 K, 9000 kPa, x2 = 0.0456	690.83
352.99 K, 9000 kPa, x2 = 0.7524	643.77
352.99 K, 10000 kPa, x2 = 0.0456	691.84
352.99 K, 10000 kPa, x2 = 0.7524	645.03
352.99 K, 11000 kPa, x2 = 0.0456	692.84
352.99 K, 11000 kPa, x2 = 0.7524	646.28
352.99 K, 12000 kPa, x2 = 0.0456	693.82
352.99 K, 12000 kPa, x2 = 0.7524	647.51
352.99 K, 13000 kPa, x2 = 0.0456	694.79
352.99 K, 13000 kPa, x2 = 0.7524	648.71
352.99 K, 14000 kPa, x2 = 0.0456	695.75
352.99 K, 14000 kPa, x2 = 0.7524	649.88
352.99 K, 15000 kPa, x2 = 0.0456	696.69
352.99 K, 15000 kPa, x2 = 0.7524	651.03
352.99 K, 16000 kPa, x2 = 0.0456	697.62
352.99 K, 16000 kPa, x2 = 0.7524	652.16
352.99 K, 17000 kPa, x2 = 0.0456	698.54
352.99 K, 17000 kPa, x2 = 0.7524	653.28
352.99 K, 18000 kPa, x2 = 0.0456	699.44
352.99 K, 18000 kPa, x2 = 0.7524	654.35
352.99 K, 19000 kPa, x2 = 0.0456	700.33

— the NIST ThermoML archive (doi:10.1021/je200721d)
